ChEMBL document CHEMBL1145232, “Synthesis of the naphthalene-derived inhibitors against Cdc25A dual-specificity protein phosphatase and their biological activity” (Bioorg Med Chem Lett, 2005)
Values after ≈ are worked out from the molar mass of the structure shown.

test: In vitro inhibitory concentration against Cdc25A protein phosphatase

| IC50 | Compound |
| --- | --- |
| > 10 µg/mL | CCCCCC(O)c1c(C/C=C/CO)cc2c(c1OC)C(=O)C=C(NC)C2=O (stereo unspecified) |
| 2.74 µg/mL (≈ 6.95 µM) | COC1=CC(=O)c2c(cc(C/C=C/CO)c(C(O)c3ccccc3)c2OC)C1=O (stereo unspecified) |
| > 10 µg/mL | CNC1=CC(=O)c2c(OC)cc(C[C@@H]3CCOC(C)(C)O3)cc2C1=O |
| > 10 µg/mL | CCCCC(O)c1c(C/C=C/CO)cc2c(OC)c(OC)cc(OCc3ccccc3)c2c1OC (stereo unspecified) |
| > 10 µg/mL | CCC(O)c1c(C/C=C/CO)cc2c(c1OC)C(=O)C=C(NC)C2=O (stereo unspecified) |
| 1.86 µg/mL (≈ 5.37 µM) | CCC(O)c1c(C/C=C/CO)cc2c(c1OC)C(=O)C=C(OC)C2=O (stereo unspecified) |
| > 10 µg/mL | CCCCC(O)c1c(C/C=C/CO)cc2c(c1O)C(O)=C/C(=N\C)C2=O (stereo unspecified) |
| 1.77 µg/mL (≈ 4.73 µM) | CCCCC(O)c1c(C/C=C/CO)cc2c(c1OC)C(=O)C=C(OC)C2=O (stereo unspecified) |
| 1.51 µg/mL (≈ 4.19 µM) | CCCCC(O)c1c(C/C=C/CO)cc2c(c1O)C(=O)C=C(OC)C2=O (stereo unspecified) |
| 1.6 µg/mL (≈ 4.12 µM) | CCCCCC(O)c1c(C/C=C/CO)cc2c(c1OC)C(=O)C=C(OC)C2=O (stereo unspecified) |
| > 10 µg/mL | CNC1=CC(=O)c2c(OC)cc(COC)cc2C1=O |
| 0.4 µg/mL (≈ 1.15 µM) | COC1=CC(=O)c2c(OC)cc(C[C@@H]3CCOC(C)(C)O3)cc2C1=O |
| > 10 µg/mL | COc1cc(OCc2ccccc2)c2c(OC)cc(C[C@@H]3CCOC(C)(C)O3)cc2c1OC |
| 0.4 µg/mL (≈ 1.61 µM) | COC1=CC(=O)c2c(OC)cc(OC)cc2C1=O |
| > 10 µg/mL | CNC1=CC(=O)c2c(cc(C/C=C/CO)c(C(O)c3ccccc3)c2OC)C1=O (stereo unspecified) |
| >= 10 ug ml-1 | CCCC[C@H]1O[C@@H](CC(=O)O)Cc2cc3c(c(O)c21)C(=O)C=C(NC)C3=O (racemic) |
